Assay [1] has as its system Staphylococcus aureus (ATCC 27217), Bacillus subtilis (ATCC 6633), Escherichia coli (strain ML-35). Put plainly: Solid-phase radial diffusion assay (signature model validation), bacteria panel. The format is cell-based. Particulars: pH 5.5 or pH 7.5, after 24h. Here is the method: (§1) Standard radial diffusion assays were conducted using 10 μg of specified peptide: defensin HNP-1 (HNP); brazzein (BRZ); charybdotoxin (CTX); or metallothionein II (MTL). Recombinant brazzein reflecting the published 3-dimensional structure (1BRZ) as determined by nuclear magnetic resonance spectroscopy was kindly provided by Drs. J. L. Markley and F. M. Assadi-Porter, the University of Wisconsin 25. Charybdotoxin, metallothionein II, and defensin HNP-1 were obtained from commercial sources. Antimicrobial activity was assessed using a well-established solid-phase diffusion method as described by Tang et al., Infect. Immun. 70: 6524-6533 (2002). Assays included well characterized organisms: Staphylococcus aureus (ATCC 27217, Gram-positive coccus); Bacillus subtilis (ATCC 6633, Gram-positive bacillus); Escherichia coli (strain ML-35, Gram-negative bacillus); and Candida albicans (ATCC 36082, fungus). In brief, organisms were cultured to logarithmic phase and inoculated (10^6 colony forming units/ml) into buffered molecular-biology grade agarose at the indicated pH. Peptides resuspended in sterile deionized water were introduced into wells formed in the underlay, and incubated for 3h at 37° C. Nutrient-containing overlay medium was then applied, and assays incubated at 37° C. or 30° C. for bacteria or fungi, respectively. After 24h, zones of complete or partial inhibition were measured. All assays were repeated independently a minimum of two times at pH 5.5 (panels A-D) or pH 7.5 (panels E-H) to assess the influences of pH on peptide antimicrobial activities versus microorganisms. Histograms express mean (±standard deviation) zones of complete (blue) or incomplete (yellow) inhibition of growth. […] Note differences in scale.
(§2) These peptides were tested for antimicrobial activity against a panel of Gram-positive (Staphylococcus aureus. Bacillus subtilis) and Gram-negative (Escherichia coli) bacteria, and the fungus Candida albicans, using a well-established and sensitive in vitro assay [Antimicrobial activity was assessed using a well-established solid-phase diffusion method. Assays included well-characterized organisms: Staphylococcus aureus (ATCC 27217, Gram-positive); Bacillus subtilis (ATCC 6633, Gram-positive); Escherichia coli (strain ML-35, Gram-negative); and Candida albicans (ATCC 36082, fungus). In brief, organisms were cultured to logarithmic phase and inoculated at a density of 10^6 colony forming units/ml in buffered molecular grade agarose at the indicated pH. […] of peptide resuspended in sterile deionized water were introduced into wells formed in the underlay, and incubated for 3h at 37° C. […] After 24h, zones of complete or partial inhibition were measured. […]

The test system of assay [2] is Candida albicans (ATCC 36082). Put plainly: Solid-phase radial diffusion assay (signature model validation), fungus. The format is cell-based. As to conditions: C. albicans, pH 5.5 or pH 7.5, after 24h. Here is the method: as §1, §2
The subject of assay [3] is Candida albicans (ATCC 36082). The assay can be described thus: Solid-phase antimicrobial assay of kinocidins. The format is cell-based. Particulars: C. albicans, 0.5 nmol/well. How it is done:
(§3) Peptides (0.5 nmol) were introduced into wells in agarose plates buffered with MES (2.0 mM, pH 5.5) or PIPES (10.0 mM, pH 7.5). Antimicrobial activity was assessed as the zone of complete (blue) or partial (red) inhibition around the well. Abbreviations are: Native IL-8 (IL-8); IL-8α, (α); IL-8γ, (γ); IL-8α+IL-8γ (α+γ); RANTES, (RAN); GRO-α, (GRO); MCP-1, (MCP); lymphotactin, (LYM); platelet factor-4, (PF-4); and HNP-1, (HNP). Histograms are means±SEM (minimum n=2).
(§4) Briefly, the antimicrobial assays were performed against a panel of prototype human pathogens as previously detailed (Yoshimura, T., Matsushima, K., Tanaka, S., Robinson, E. A., Appella, E., Oppenheim, J. J. & Leonard, E. J. (1987) Proc Natl Acad Sci USA 84, 9233-7): Staphylococcus aureus (ATCC 27217; Gram-positive bacterium); Salmonella typhimurium (5996s; Gram-negative bacterium); and the fungus Candida albicans (ATCC 36082). Defensin HNP-1 was included in each assay as an internal control, and all assays were conducted a minimum of two independent times. Results of independent assays were analyzed using Wilcoxon Rank Sum analysis with Bonferroni correction for multiple comparisons.
(§5) For the Solid-Phase Assay, mid-logarithmic phase organisms were prepared, introduced into buffered agarose (PIPES [10 mM, pH 7.5] or MES [2.0 mM, pH 5.5]) to achieve final inocula of 10^6 CFU/ml, and poured into plates. Peptides (0.5 nmol/well [50 nmol/ml]) were added to wells in the seeded matrix, and incubated for 3h at 37° C. Nutrient overlay medium was applied, and assays incubated at 37° C. or 30° C. for bacteria or fungi, respectively. After 24h, zones of inhibition were measured, and results recorded as zones of complete or partial inhibition.

Assay [4] concerns Salmonella typhimurium (5996s). Put plainly: Solid-phase antimicrobial assay of kinocidins. Particulars: S. typhimurium (Gram-negative); pH 5.5 or 7.5, not separated; 0.5 nmol/well. The format is cell-based. Here is the method:
as §3, §4, §5

For assay [5], the system named is Staphylococcus aureus (ATCC 27217). The assay can be described thus: Solid-phase antimicrobial assay of kinocidins. The format is cell-based. As to conditions: 0.5 nmol/well. How it is done:
as §3, §4, §5

Assay [6] has as its system C. albicans ATCC 36082. The assay can be described thus: Solution-phase microbicidal assay. The format is cell-based, Candida albicans. Particulars: C. albicans; for microbicidal (fungicidal) activity: solution-phase, pH 5.5 and 7.5, 1 hour. How it is done: (§6) One million CFU of the indicated microorganism per milliliter were incubated with peptide (0.00125-20.0 nmol/ml) in either MES (2.0 mM, pH 5.5) or PIPES (10.0 mM, pH 7.5) for one hour at 37° C. Surviving CFU were enumerated and are described as change in the initial log 10 CFU. ∘, S. aureus ATCC 27217; ●, S. typhimurium strain 5990s; □, C. albicans ATCC 36082. Data are means±SD (minimum n=2).
as §4
(§7) To characterize IL-8's antimicrobial activity in more detail, a quantitative solution-phase assay was carried out at pH 5.5 and 7.5. Organisms were prepared and adjusted to 10^6 CFU/ml in PIPES or MES buffer as above but lacking agarose, and dispensed (5×10^4 CFU per 50 μl aliquot). Peptide (concentration range, 20-0.00125 nmol/ml) was introduced into the assay medium, and incubated for 1 hour at 37° C. After incubation, media were serially diluted and plated in triplicate for enumeration. […] IL-8 was also fungicidal for C. albicans at pH 7.5, with a 2-log reduction in surviving CFU over 1 hour at a concentration of 2.5 nmol/ml.

Assay [7] has as its system S. typhimurium. The assay can be described thus: Solution-phase microbicidal assay. The format is cell-based, Salmonella typhimurium. Particulars: for microbicidal activity: solution-phase, pH 5.5 and 7.5, 1 hour. How it is done:
as §6, §4, §7

For assay [8], the system named is S. aureus ATCC 27217. Put plainly: Solution-phase microbicidal assay. The format is cell-based, Staphylococcus aureus. Particulars: for microbicidal activity: solution-phase, pH 5.5 and 7.5, 1 hour. Here is the method: as §6, §4, §7
[9] abbreviates: S. aureus (Gram-positive), pH 5.5 or 7.5, not separated.

“Also recorded” adds a separate entry of the source.

Turning to “brazzein: recombinant sweetener protein from Pentadiplandra (1BRZ) (QDKCKKVYENYPVSKCQLANQCNYDCKLDKHARSGECFYDEKRNLQCICDYCEY; UniProt P56552 1-54, looked up)”, the “antimicrobial activity (zones of complete or partial inhibition)” value in assay [1] and in assay [2] was “exerted direct antimicrobial activity; also recorded: direct antimicrobial activities” each time.

Turning to “metallothionein II: comparator predicted to lack antimicrobial activity, from commercial sources”, the “antimicrobial activity (zones of complete or partial inhibition)” value in assay [1] is “failed to exert antimicrobial activity”; in assay [1] (listed as Metallothionein II), “lacked antimicrobial activity”; in assay [2] it was “failed to exert antimicrobial activity”; in assay [2] (listed as Metallothionein II), “lacked antimicrobial activity”.

Regarding “ANTEIIVKLSDGRELCLDP [IL-8γ, synthetic γ-core domain of IL-8]”, the “antifungal activity (zone of inhibition)” value in assay [3] (pH 5.5 or 7.5, not separated) is “no detectable antimicrobial efficacy”. In addition, the “antimicrobial activity (zone of inhibition)” value in assay [4] and in assay [5] (setting [9]) was “no detectable antimicrobial efficacy” each time. The “microbicidal (fungicidal) activity” value in assay [6] is on record as “no measurable activity”. The microbicidal activity result in assay [7] and in assay [8] was “no measurable activity” in each case.

On to “IL-8: recombinant human chemokine interleukin-8, obtained commercially”, for which the “antifungal activity (zone of inhibition)” value was “greater than any other kinocidin” in assay [3] (pH 5.5); “striking antifungal activity” in assay [3] (pH 5.5 or 7.5, not separated); “the only kinocidin with anti-candidal activity” in assay [3] (pH 7.5). For the same molecule, the “antimicrobial activity (zone of inhibition)” value is listed as “equivalent to lymphotactin, but more efficacious than any other test kinocidin” in assay [4] and “modest activity” in assay [5] (S. aureus, pH 5.5). In assay [6] (pH 7.5, 2.5 nmol/ml, over 1 hour), the “reduction in surviving CFU” value is 2 log. In assay [6], the “microbicidal (fungicidal) activity” value is listed as “highly fungicidal”. In addition, the “activity in solution phase” value in assay [7] (pH 7.5) and in assay [8] (pH 7.5) was “lacks activity” each time. Moreover, the microbicidal activity entry in assay [7] and in assay [8] was “did not exert microbicidal activity” in each case.

Consider charybdotoxin, for which the “antimicrobial activity (zones of complete or partial inhibition)” value in assay [1] and in assay [2] was “exerted direct antimicrobial activity; also recorded: direct antimicrobial activities” each time.

On to “MCP-1: recombinant human chemokine, obtained commercially”, for which the “antifungal activity (zone of inhibition)” value in assay [3] (pH 5.5 or 7.5, not separated) is “no measurable antifungal activity”. In addition, the “antimicrobial activity (zone of inhibition)” value in assay [4] and in assay [5] (setting [9]) was “significant activity” each time.

In the case of “RANTES: recombinant human chemokine, obtained commercially”, in assay [5] (S. aureus, pH 7.5), the “antimicrobial activity (zone of inhibition)” value is on record as “more efficacious”.

B1: Lymphotactin: recombinant human chemokine, obtained commercially (protein, UniProt P47992 22-114, looked up)
Lymphotactin: VGSEVSDKRTCVSLTTQRLPVSRIKTYTITEGSLRAVIFITKRGLKVCADPQATWVRDVVRSMDRKSNTRNNMIQTKPTGTQQSTNTAVTLTG
For the molecule B1, in assay [5] (S. aureus, pH 7.5), the “antimicrobial activity (zone of inhibition)” value was “more efficacious”.
